Where a name gives a salt, the structure may show the parent alone. Read-outs that look alike come from different tables or passages of the source.
What was measured:
[1] = target: T1, c-erbB-4 (baculovirus expressed, recombinant intracellular domain) (Homo sapiens, UniProt Q15303); assay: Substrate phosphorylation assay, c-erbB-4; type: biochemical
T1 construct: baculovirus expressed, recombinant constructs of the intracellular domains of c-erbB-2 and c-erbB-4; made in house
Protocol: (§1) The substrate phosphorylation assays use baculovirus expressed, recombinant constructs of the intracellular domains of c-erbB-2 and c-erbB-4 that are constitutively active and EGFr isolated from solubilised A431 cell membranes. The method measures the ability of the isolated enzymes to catalyse the transfer of the γ-phosphate from ATP onto tyrosine residues in a biotinylated synthetic peptide (Biotin-[…]. […] The reaction is stopped by the addition of EDTA (final concentration 0.15 mM) and a sample is transferred to a streptavidin-coated 96-well plate. The plate is washed and level of phosphotyrosine on the peptide is determined using a Europium-labelled antiphosphotyrosine antibody and quantified with a time-resolved fluorescence technique.

[2] = target: T2, EGFr isolated from solubilised A431 cell membranes (Homo sapiens, UniProt P00533); assay: Substrate phosphorylation assay, EGFr; type: biochemical
T2 construct: EGFr isolated from solubilised A431 cell membranes; endogenous in cells; host or cells: A431 cell membranes (solubilised)
T2 sequence (P00533 25-1210): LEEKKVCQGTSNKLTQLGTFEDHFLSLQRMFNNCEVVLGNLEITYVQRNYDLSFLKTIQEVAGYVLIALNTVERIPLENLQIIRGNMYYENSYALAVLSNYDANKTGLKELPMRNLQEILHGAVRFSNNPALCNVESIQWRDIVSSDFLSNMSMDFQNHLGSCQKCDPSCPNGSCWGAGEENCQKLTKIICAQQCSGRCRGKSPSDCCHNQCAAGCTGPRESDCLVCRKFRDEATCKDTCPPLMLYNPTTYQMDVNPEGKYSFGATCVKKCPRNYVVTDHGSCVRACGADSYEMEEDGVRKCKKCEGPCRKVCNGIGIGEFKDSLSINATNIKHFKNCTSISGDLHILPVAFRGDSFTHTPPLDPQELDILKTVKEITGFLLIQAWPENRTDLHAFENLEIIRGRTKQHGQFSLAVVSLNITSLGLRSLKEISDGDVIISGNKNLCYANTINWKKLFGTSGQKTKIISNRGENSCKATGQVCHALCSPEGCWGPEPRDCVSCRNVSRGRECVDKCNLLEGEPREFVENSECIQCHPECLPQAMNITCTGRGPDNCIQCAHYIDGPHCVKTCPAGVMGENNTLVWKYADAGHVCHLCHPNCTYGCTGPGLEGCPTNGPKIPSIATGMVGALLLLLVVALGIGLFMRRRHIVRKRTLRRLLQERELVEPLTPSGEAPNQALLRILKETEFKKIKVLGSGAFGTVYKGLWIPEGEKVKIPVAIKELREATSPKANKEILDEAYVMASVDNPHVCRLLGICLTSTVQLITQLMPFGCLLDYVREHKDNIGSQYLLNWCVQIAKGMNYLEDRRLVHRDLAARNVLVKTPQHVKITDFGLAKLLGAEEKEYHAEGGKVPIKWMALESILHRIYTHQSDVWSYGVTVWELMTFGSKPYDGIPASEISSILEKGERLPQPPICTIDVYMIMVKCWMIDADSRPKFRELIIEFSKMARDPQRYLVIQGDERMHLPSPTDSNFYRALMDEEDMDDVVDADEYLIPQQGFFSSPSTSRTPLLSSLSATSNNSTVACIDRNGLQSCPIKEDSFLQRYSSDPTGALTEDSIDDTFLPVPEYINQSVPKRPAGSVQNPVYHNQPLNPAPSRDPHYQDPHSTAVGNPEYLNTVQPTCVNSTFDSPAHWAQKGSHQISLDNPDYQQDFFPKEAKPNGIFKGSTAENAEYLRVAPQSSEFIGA
Protocol: as §1

[3] = target: T3, c-erbB-2 (baculovirus expressed, recombinant intracellular domain) (Homo sapiens, UniProt P04626); assay: Substrate phosphorylation assay, c-erbB-2; type: biochemical; conditions: read-out: Substrate Phosphorylation erbB-2
T3 construct: baculovirus expressed, recombinant constructs of the intracellular domains of c-erbB-2 and c-erbB-4; made in house
T3 sequence (P04626 676-1255 limits assumed): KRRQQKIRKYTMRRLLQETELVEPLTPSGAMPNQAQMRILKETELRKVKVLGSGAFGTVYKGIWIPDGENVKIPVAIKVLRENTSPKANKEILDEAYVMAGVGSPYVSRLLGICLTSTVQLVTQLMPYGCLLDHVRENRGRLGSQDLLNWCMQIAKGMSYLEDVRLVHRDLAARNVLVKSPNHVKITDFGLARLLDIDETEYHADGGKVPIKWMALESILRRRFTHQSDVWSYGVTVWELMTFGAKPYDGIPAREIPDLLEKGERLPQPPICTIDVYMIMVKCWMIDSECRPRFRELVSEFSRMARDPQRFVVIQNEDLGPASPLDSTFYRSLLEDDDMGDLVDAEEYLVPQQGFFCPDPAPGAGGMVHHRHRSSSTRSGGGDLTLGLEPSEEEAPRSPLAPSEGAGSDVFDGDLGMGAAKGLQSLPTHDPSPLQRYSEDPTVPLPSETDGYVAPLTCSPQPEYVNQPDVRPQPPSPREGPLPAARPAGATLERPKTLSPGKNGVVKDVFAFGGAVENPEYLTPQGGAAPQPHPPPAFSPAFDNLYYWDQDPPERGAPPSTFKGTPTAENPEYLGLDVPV
Protocol: as §1

[4] = target: HB4a cell line transformed by over-expression of c-erbB-2 (Homo sapiens, UniProt P04626); assay: Cell proliferation assay, HB4a erbB-2; type: cell-based; conditions: 4 days at 37° C., methylene blue staining; read-out: Cell Proliferation HB4a erbB-2
Chain of HB4a cell line transformed by over-expression of c-erbB-2 (P04626 whole entry, change not shown): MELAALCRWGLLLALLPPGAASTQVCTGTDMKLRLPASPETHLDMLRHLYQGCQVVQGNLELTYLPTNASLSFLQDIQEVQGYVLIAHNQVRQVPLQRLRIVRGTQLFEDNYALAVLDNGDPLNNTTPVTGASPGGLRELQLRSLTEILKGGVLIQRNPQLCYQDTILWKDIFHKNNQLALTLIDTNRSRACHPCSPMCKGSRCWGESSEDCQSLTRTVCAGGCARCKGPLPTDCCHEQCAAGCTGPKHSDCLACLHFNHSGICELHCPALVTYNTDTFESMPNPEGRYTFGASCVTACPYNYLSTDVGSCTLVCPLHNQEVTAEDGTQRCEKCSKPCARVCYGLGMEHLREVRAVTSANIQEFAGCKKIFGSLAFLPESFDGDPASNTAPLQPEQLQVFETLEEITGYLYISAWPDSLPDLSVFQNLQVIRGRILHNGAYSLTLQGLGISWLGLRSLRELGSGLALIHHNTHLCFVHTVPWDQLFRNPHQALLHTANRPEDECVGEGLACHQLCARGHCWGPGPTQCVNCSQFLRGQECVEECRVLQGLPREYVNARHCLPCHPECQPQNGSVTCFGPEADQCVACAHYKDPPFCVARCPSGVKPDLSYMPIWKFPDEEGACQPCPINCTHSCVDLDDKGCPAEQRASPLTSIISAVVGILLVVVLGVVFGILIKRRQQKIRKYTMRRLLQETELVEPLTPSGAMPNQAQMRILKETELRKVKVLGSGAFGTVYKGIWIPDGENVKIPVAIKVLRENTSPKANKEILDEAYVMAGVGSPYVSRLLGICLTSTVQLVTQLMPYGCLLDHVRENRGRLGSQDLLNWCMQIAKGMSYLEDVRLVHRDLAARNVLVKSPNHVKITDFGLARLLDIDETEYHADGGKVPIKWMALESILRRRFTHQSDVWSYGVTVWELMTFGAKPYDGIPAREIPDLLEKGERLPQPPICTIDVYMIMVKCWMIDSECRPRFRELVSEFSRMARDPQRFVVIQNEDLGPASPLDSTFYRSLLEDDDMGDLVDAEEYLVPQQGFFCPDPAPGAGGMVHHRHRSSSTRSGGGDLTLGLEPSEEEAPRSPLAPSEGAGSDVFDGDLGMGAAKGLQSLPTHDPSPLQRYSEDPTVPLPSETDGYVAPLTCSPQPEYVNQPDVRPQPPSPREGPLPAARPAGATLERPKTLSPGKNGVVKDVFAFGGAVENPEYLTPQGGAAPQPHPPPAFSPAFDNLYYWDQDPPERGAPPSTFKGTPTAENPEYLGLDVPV
Protocol: The cell proliferation assay uses an immortalised human breast epithelial cell line (HB4a) which has been transformed by over-expression of c-erbB-2. Growth of these cells in low serum is dependent upon the c-erbB-2 tyrosine kinase activity. […] Cells are plated at 3000/ well in 96-well plates in 0.1 ml medium and allowed to attach overnight. test compound is added in 0.1 ml medium, with a final concentration of 0.5% DMSO, and the plates incubated for 4 days at 37° C. The cells are then examined microscopically for evidence of morphological detransformation and cell mass is estimated by staining with methylene blue and measuring the absorbance at 620 nm. […] Activity against a range of naturally occurring EGFr or c-erbB-2 over-expressing human tumour cell lines (BT474-breast, HN5-head and neck, N87-gastric and Calu3-lung) is assessed with selected compounds by the same methodology.

[5] = system: HB4a cell line transfected with ras; assay: Cell proliferation assay, HB4a ras; type: cell-based, human; conditions: Homo sapiens, HB4a, 96 h; 4 days at 37° C., methylene blue staining; general toxicity control; read-out: Cell Proliferation HB4a ras
[6] = 30 minutes, room temperature, ATP and peptide at Km concentrations

T1 sequence (Q15303 676-1308 limits assumed): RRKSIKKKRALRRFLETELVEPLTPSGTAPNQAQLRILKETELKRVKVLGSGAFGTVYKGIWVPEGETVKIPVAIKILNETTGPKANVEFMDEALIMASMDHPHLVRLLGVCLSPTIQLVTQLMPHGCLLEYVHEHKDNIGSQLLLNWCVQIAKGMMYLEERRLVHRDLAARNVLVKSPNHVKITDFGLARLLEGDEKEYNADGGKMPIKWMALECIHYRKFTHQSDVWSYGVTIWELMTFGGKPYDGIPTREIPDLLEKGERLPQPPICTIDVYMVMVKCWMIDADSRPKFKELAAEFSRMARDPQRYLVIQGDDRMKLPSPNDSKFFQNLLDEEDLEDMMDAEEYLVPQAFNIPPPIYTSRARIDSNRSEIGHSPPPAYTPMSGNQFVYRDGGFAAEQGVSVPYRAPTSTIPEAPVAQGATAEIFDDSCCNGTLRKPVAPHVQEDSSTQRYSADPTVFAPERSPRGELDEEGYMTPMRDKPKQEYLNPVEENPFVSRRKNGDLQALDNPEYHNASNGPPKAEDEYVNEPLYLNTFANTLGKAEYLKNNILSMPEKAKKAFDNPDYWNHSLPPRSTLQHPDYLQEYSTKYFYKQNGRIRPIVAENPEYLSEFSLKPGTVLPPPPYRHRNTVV

Structure (SMILES)	IC50 [1] [nM]	IC50 [2, 6] [nM]	IC50 [3] [nM]	GI50 [4] [nM]	IC50 [5] [nM]	IC50 [2] [nM]
CCN(CCN(C)C)Cc1ccc(-c2ccc3ncnc(Nc4ccc(OCc5ccccc5)cc4)c3c2)o1 [Example 13, N-(5-(4-(4-Benzyloxy-phenylamino)-quinazolin-6-yl)-furan-2-ylmethyl)-N-ethyl-N′,N′-dimethyl-ethane-1,2-diamine]	2300	300	350	450	2200	
c1ccc(COc2ccc(Nc3ncnc4ccc(-c5ccc(CNc6cccnc6)o5)cc34)cc2)cc1 [Example 14, (4-Benzyloxy-phenyl)-(6-(5-(pyridin-3-ylaminomethyl)-furan-2-yl)quinazolin-4-yl)-amine]	1200		34	680	5000	200
c1ccc(COc2ccc(Nc3ncnc4ccc(-c5ccc(CNCC6CCCO6)o5)cc34)cc2)cc1 (stereo not shown) [Example 15, (4-Benzyloxy-phenyl)-(6-(5-(((tetrahydro-furan-2-ylmethyl)-amino)-methyl)-furan-2-yl)-quinazolin-4-yl)-amine hydrochloride]	2300	540	50	2600	3200	
Cc1nnc(-c2ccc3ncnc(Nc4ccc(Oc5ccccc5)cc4)c3c2)o1 [Example 20, (4-Phenoxy-phenyl)-(6-(5-methyl-1,3,4-oxadiazol-2-yl)quinazolin-4-yl)-amine hydrochloride]		140	3	6200	> 50000	
Cc1nnc(-c2ccc3ncnc(Nc4ccc5c(cnn5Cc5ccccc5F)c4)c3c2)o1 [Example 21, (1-(2-Fluorobenzyl)-1H-indazol-5-yl)-(6-(5-methyl-1,3,4-oxadiazol-2-yl)-quinazolin-4-yl-amine hydrochloride]		28	9	2300	> 50000	
Cc1nnc(-c2ccc3ncnc(Nc4ccc5c(cnn5Cc5ccccn5)c4)c3c2)o1 [Example 23, (1-Pyridin-2-ylmethyl)-1H-indazol-5-yl)-(6-(5-methyl-1,3,4-oxadiazol-2-yl)-quinazolin-4-yl)-amine hydrochloride]		32	1	31000	> 50000	
Cc1nnc(-c2ccc3ncnc(Nc4ccc5c(cnn5Cc5cccc(F)c5F)c4)c3c2)o1 [Example 24, (1-(2,3-Difluorobenzyl)-1H-indazol-5-yl)-(6-(5-methyl-1,3,4-oxadiazol-2-yl)quinazolin-4-yl)-amine hydrochloride]		15	2	17000	> 50000	
Cc1nnc(-c2ccc3ncnc(Nc4ccc(OCc5ccccc5F)c(Cl)c4)c3c2)o1 [Example 25, (3-Chloro-4-(2-fluoro-benzyloxy)-phenyl)-(6-(5-methyl-1,3,4-oxadiazol-2-yl)-s-quinazolin-4-yl)-amine hydrochloride]		22	15	750	> 50000	
Cc1nnc(-c2ccc3ncnc(Nc4ccc(OCc5cccc(F)c5)c(Cl)c4)c3c2)o1 [Example 26, (3-Chloro-4-(3-fluoro-benzyloxy)-phenyl)-(6-(5-methyl-1,3,4-oxadiazol-2-yl)-quinazolin-4-yl)-amine hydrochloride]		18	7	650	> 50000	
Cc1nnc(-c2ccc3ncnc(Nc4ccc(OCc5ccccc5)cc4)c3c2)o1 [Example 27, (4-Benzyloxy-phenyl)-(6-(5-methyl-1,3,4-oxadiazol-2-yl)-quinazolin-4-yl)-amine hydrochloride]		47	10	6500	50000	
Cc1nnc(-c2ccc3ncnc(Nc4ccc5c(cnn5Cc5cc(F)cc(F)c5)c4)c3c2)o1 [Example 31, (1-(3,5-Difluoro-benzyl)-1H-indazol-5-yl)-(6-(5-methyl-1,3,4-oxadiazol-2-yl)-quinazolin-4-yl)-amine hydrochloride]				1100	> 50000	9
Cn1cncc1-c1ccc2ncnc(Nc3ccc4c(cnn4Cc4ccccc4)c3)c2c1 [Example 38, (1-Benzyl-1H-indazol-5-yl)-(6-(3-methyl-3H-imidazol-4-yl)-quinazolin-4-yl)-amine]	520	140	88			
COC(=O)c1ccc(-c2ccc3ncnc(Nc4ccc(OCc5ccccc5)cc4)c3c2)o1 [Example 51, 5-(4-(4-Benzyloxy-phenylamino)-quinazolin-6-yl)-furan-2-carboxylic acid methyl ester]	5800		20	38000	21000	
CS(=O)(=O)CCNC(=O)c1ccc(-c2ccc3ncnc(Nc4ccc(OCc5ccccc5)cc4)c3c2)o1 [Example 53, 5-[4-(4-Benzyloxy-phenylamino)-quinazolin-6-yl]-furan-2-carboxylic acid (2-methanesulphonyl-ethyl)-amide hydrochloride]		13		1800	36000	
CNS(=O)(=O)CCNCc1ccc(-c2ccc3ncnc(Nc4ccc(OCc5ccccc5)cc4)c3c2)o1 [Example 54, 2-((5-(4-(4-Benzyloxy-phenylamino)-quinazolin-6-yl)-furan-2-ylmethyl)-amino)-ethanesulphonic acid methylamide]	280		24	140	7400	
Cc1noc(-c2ccc3ncnc(Nc4ccc5c(cnn5Cc5ccccc5)c4)c3c2)n1 [Example 55, (1-Benzyl-1H-indazol-5-yl)-(6-(3-methyl-1,2,4-oxadiazol-5-yl)-quinazolin-4-yl)-amine hydrochloride]	1000		10	2000	20000	
Cc1nc(-c2ccc3ncnc(Nc4ccc(OCc5ccccc5)cc4)c3c2)no1 [Example 56, (4-Benzyloxy-phenyl)-(6-(5-methyl-1,2,4-oxadiazol-3-yl)-quinazolin-4-yl)-amine]	> 10000		260	1700	> 50000	
CS(=O)(=O)CCNCc1nc(-c2ccc3ncnc(Nc4ccc5c(cnn5Cc5ccccc5)c4)c3c2)no1 [Example 59, (1-Benzyl-1H-indazol-5-yl)-(6-(5-(((2-methanesulphonyl-ethyl)-amino)-methyl)-1,2,4-oxadiazol-3-yl)-quinazolin-4-yl)-amine]		11		790	11000	
CS(=O)(=O)Cc1nc(-c2ccc3ncnc(Nc4ccc5c(cnn5Cc5ccccc5)c4)c3c2)no1 [Example 60, (1-Benzyl-1H-indazol-5-yl)-(6-(5-methanesulphonylmethyl-1,2,4-oxadiazol-3-yl)-quinazolin-4-yl)-amine]		1900		540	50000	
Cc1nc(-c2ccc3ncnc(Nc4ccc5c(cnn5Cc5ccccc5)c4)c3c2)no1 [Example 61]		810		500	3100	
c1ccc(Cn2ncc3cc(Nc4ncnc5ccc(-c6noc(Cc7cccnc7)n6)cc45)ccc32)cc1 [Example 62]		13	100	500	3700	
Cc1nocc1-c1ccc2ncnc(Nc3ccc(OCc4ccccc4)cc3)c2c1 [Example 85, (4-Benzyloxy-phenyl)-(6-(3-methyl-[1,2]oxazol-4-yl)-quinazolin-4-yl)-amine]	9700		130	2100	2300	

From patent US6828320B2, “Heterocyclic compounds” (SmithKline Beecham Corporation, priority 1996, dated 2004)
